In ChEMBL document CHEMBL6182910, “Design, Synthesis, and Biological Evaluation of 4-(Difluoromethyl)-1H-imidazole-5-carboxylic Acids/4-(3-Cyanophenoxy)pyrimidine-5-carboxylic Acids as P2Y1 Receptor Antagonists for Ischemic Stroke Treatment” (J Med Chem, 2025):
Active and inactive are the calls of the source. The calls are words filed in the database; no cut-off is given here.

Key:
HT-22 [1] = assay: Neuroprotective activity against H2O2-induced oxidative stress in mouse HT-22 cells assessed as cell viability at 10 uM preincubated for 2 hrs followed by H2O2 addition measured after 24 hrs by MTT assay (reference value: 55 +/- 4.6 %); format: functional; settings: time 26 hrs, read-out: Activity
HT-22 [2] = assay: Neuroprotective activity against H2O2-induced oxidative stress in mouse HT-22 cells assessed as increase in nuclear Nrf2 level at 10 uM preincubated for 2 hrs followed by H2O2 addition measured after 16 hrs by Western blot analysis; format: functional, cell-based; settings: time 18.0 hrs
Plasma [3] = assay: Anti-platelet aggregation in platelet-rich plasma of male male Sprague-Dawley rat assessed as inhibition of ADP-induced platelet aggregation preincubated for 15 mins followed by ADP addition measured up to 10 mins by Born's turbidometric method; format: functional, cell-free
Plasma [4] = assay: Anti-platelet aggregation in platelet-rich plasma of male human assessed as inhibition of ADP-induced platelet aggregation preincubated for 15 mins followed by ADP addition measured up to 10 mins by Born's turbidometric method; format: functional, cell-free
[5] = Antagonist activity at P2Y1 receptor in platelet-rich plasma of male Japanese white rabbit assessed as inhibition of ADP-induced cytosolic Ca2+ level pretreated for 5 mins followed by ADP addition by FLUO-4 AM dye based analysis; format: cell-free; settings: Oryctolagus cuniculus
Oryctolagus cuniculus = species on record: Oryctolagus cuniculus; assay: Antagonist activity at P2Y12 receptor in platelet-rich plasma of male Japanese white rabbit assessed as inhibition of VASP phosphorylation at Ser239 at 30 uM pretreated for 10 mins followed by PGE1/ADP addition measured after 10 mins by ELISA relative to control; format: cell-free; settings: time 20.0 min
[6] = target: P2Y purinoceptor 1 (Rattus norvegicus) (UniProt P49651); assay: Induction of thermal stabilization of P2Y1 receptor in rat platelet-rich plasma at 10 uM incubated for 30 mins followed by heat exposure at 48 to 62 degreeC for 10 mins by CETSA; format: cell-free; settings: time 40.0 min
Chain of P2Y purinoceptor 1 (Rattus norvegicus) (P49651 whole entry): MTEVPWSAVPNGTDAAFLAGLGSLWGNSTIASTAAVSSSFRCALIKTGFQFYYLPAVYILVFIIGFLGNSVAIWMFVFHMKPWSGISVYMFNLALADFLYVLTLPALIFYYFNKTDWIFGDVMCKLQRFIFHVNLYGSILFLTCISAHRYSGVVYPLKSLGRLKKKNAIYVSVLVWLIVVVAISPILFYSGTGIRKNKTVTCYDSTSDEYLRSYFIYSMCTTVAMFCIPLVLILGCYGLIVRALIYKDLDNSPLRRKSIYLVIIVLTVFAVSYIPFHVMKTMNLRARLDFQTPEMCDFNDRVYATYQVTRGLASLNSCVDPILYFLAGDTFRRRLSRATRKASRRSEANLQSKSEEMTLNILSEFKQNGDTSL

[7] = target: P2Y purinoceptor 1 (Rattus norvegicus) (UniProt P49651); assay: Induction of thermodynamic stability of P2Y1 receptor in rat platelet-rich plasma incubated for 30 mins followed by heat exposure at 61 degreeC for 10 mins by CETSA; format: cell-free; settings: dose <= 100.0 µM, time 40.0 min
CYP1A2 = target: T1, CYP1A2 (Homo sapiens, UniProt P05177); assay: Inhibition of CYP1A2 in human liver microsomes using phenacetin as substrate at 10 uM preincubated for 5 min followed by NADPH addition measured after 120 mins by LC-MS/MS analysis relative to control; format: ADME, Microsome; settings: probe phenacetin, time 125 min
T1 sequence (P05177 whole entry): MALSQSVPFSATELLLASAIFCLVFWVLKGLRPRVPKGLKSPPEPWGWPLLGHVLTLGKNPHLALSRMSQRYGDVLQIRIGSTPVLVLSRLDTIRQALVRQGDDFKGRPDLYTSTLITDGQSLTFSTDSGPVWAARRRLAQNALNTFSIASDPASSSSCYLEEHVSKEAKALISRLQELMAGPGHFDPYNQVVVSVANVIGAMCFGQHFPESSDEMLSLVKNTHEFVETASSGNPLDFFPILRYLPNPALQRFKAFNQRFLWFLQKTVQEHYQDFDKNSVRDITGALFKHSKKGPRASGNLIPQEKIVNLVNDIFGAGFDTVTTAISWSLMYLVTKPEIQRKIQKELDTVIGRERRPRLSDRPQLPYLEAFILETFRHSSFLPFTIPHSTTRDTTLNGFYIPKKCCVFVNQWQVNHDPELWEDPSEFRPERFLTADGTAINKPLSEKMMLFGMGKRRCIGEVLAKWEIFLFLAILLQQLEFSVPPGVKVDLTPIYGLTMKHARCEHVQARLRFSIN

CYP2E1 = CYP2E1 (Homo sapiens, UniProt P05181); assay: Inhibition of CYP2E1 in human liver microsomes using chlorzoxazone as substrate at 10 uM preincubated for 5 min followed by NADPH addition measured after 120 mins by LC-MS/MS analysis relative to control; format: ADME, Microsome; settings: probe chlorzoxazone, time 125 min
Chain of CYP2E1 (P05181 whole entry): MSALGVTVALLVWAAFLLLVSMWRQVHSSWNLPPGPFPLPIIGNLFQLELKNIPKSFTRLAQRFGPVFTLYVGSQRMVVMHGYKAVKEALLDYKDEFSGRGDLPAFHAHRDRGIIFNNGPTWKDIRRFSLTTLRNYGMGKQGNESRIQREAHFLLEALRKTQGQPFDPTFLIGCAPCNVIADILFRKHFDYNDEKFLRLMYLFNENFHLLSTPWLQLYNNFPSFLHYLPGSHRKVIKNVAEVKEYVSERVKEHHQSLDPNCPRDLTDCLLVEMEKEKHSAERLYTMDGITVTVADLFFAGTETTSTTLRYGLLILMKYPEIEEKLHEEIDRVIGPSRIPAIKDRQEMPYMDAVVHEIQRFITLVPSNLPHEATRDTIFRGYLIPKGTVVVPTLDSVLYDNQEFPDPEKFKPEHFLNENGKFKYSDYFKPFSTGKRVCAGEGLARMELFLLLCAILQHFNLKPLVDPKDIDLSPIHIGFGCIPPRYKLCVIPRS

CYP3A4 = CYP3A4 (Homo sapiens, UniProt P08684); assay: Inhibition of CYP3A4 in human liver microsomes using nifedipine as substrate at 10 uM preincubated for 5 min followed by NADPH addition measured after 120 mins by LC-MS/MS analysis relative to control; format: ADME, Microsome; settings: probe nifedipine, time 125 min
Chain of CYP3A4 (P08684 whole entry): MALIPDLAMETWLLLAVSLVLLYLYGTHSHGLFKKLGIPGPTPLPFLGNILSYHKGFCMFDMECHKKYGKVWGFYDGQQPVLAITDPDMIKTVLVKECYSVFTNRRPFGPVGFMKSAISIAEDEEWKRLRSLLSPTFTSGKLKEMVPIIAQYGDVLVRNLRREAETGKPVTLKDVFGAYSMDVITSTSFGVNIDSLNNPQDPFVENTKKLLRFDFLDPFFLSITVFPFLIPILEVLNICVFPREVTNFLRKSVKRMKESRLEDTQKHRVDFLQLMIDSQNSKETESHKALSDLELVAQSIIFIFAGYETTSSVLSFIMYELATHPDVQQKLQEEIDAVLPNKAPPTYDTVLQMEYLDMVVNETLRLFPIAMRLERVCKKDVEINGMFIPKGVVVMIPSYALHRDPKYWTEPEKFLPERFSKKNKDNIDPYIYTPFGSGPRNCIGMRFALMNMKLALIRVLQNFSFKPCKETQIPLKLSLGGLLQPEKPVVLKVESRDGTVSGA

[8] = Tmax male Sprague-Dawley rat at 10 mg/kg, po measured up to 24 hrs by LC-MS/MS analysis; format: ADME, organism-based; settings: in vivo
[9] = Half life male Sprague-Dawley rat at 10 mg/kg, iv measured up to 24 hrs by LC-MS/MS analysis; format: ADME, organism-based; settings: in vivo
[10] = Tmax male Sprague-Dawley rat at 10 mg/kg, iv measured up to 24 hrs by LC-MS/MS analysis; format: ADME, organism-based; settings: in vivo
[11] = MRT (0 to infinity) male Sprague-Dawley rat at 10 mg/kg, iv measured up to 24 hrs by LC-MS/MS analysis; format: ADME, organism-based; settings: in vivo
[12] = Apparent volume of distribution male Sprague-Dawley rat at 10 mg/kg, iv measured up to 24 hrs by LC-MS/MS analysis; format: ADME, organism-based; settings: in vivo, read-out: Vz
[13] = AUC in brain of male Kunming mouse at 10 mg/kg, iv measured for 0.083 to 24 hrs by LC-MS/MS analysis; format: ADME, organism-based; settings: in vivo, time 0.083-24 hrs
Rattus norvegicus [14] = assay: Anti-platelet aggregation in Sprague-Dawley rat assessed as reduction in ADP-induced bleeding loss at 10 mg/kg, po measured for 15 mins in presence of 10 uM ADP; format: functional, organism-based
Rattus norvegicus [15] = assay: Neuroprotective activity in MCAO-induced brain damage Sprague-Dawley rat model assessed as reduction in brain water content at 2.5 to 10 mg/kg, iv administered immediately after arterial occlusion measured after 24 hrs; format: functional, organism-based; settings: dose 2.5-10 mg/kg
Rattus norvegicus [16] = assay: Neuroprotective activity in MCAO-induced brain damage Sprague-Dawley rat model assessed as reduction in neurological damage administered intravenously immediately after arterial occlusion measured after 24 hrs by Longa's method; format: functional, organism-based; settings: dose 2.5-10 mg/kg, route iv
Rattus norvegicus [17] = assay: Neuroprotective activity in MCAO-induced brain damage Sprague-Dawley rat model assessed as reduction in brain infarction size at 2.5 mg/kg, iv administered immediately after arterial occlusion measured after 24 hrs by TTC staining based analysis relative to control; format: functional; parameters: scale not given: the % may be the effect or the level left
Rattus norvegicus [18] = assay: Neuroprotective activity in MCAO-induced brain damage Sprague-Dawley rat model assessed as reduction in brain infarction size at 5 mg/kg, iv administered immediately after arterial occlusion measured after 24 hrs by TTC staining based analysis relative to control; format: functional; parameters: scale not given: the % may be the effect or the level left
Rattus norvegicus [19] = assay: Neuroprotective activity in MCAO-induced brain damage Sprague-Dawley rat model assessed as brain infarction size at 2.5 mg/kg, iv administered immediately after arterial occlusion measured after 24 hrs by TTC staining based analysis (reference value: 43.1 %); format: functional
Rattus norvegicus [20] = assay: Neuroprotective activity in MCAO-induced brain damage Sprague-Dawley rat model assessed as brain infarction size at 5 mg/kg, iv administered immediately after arterial occlusion measured after 24 hrs by TTC staining based analysis (reference value: 43.1 %); format: functional
Rattus norvegicus [21] = assay: Neuroprotective activity in MCAO-induced brain damage Sprague-Dawley rat model assessed as plasma GSH-px level at 2.5 to 10 mg/kg, iv administered immediately after arterial occlusion measured after 24 hrs; format: functional; settings: dose 2.5-10 mg/kg

SMILES	viability at 10 µM (HT-22 [1]) [%]	Activity (HT-22 [2])	IC50 (Plasma [3]) [nM]	IC50 (Plasma [4]) [nM]	IC50 [5] [nM]	inhibition (Oryctolagus cuniculus) [%]	Activity [6]	Activity [7]	inhibition at 2 h, 10 µM (CYP1A2) [%]	inhibition at 2 h, 10 µM (CYP2E1) [%]	inhibition at 2 h, 10 µM (CYP3A4) [%]	half-life [9] [min]	Tmax [10] [min]	MRT inf [11] [min]	Vd [12] [L/kg]	AUC [13] [µg·h/g]	Activity (Rattus norvegicus [14])	Activity (Rattus norvegicus [15])	Activity (Rattus norvegicus [16])	Activity (Rattus norvegicus [17]) [%]	other results
N#Cc1cccc(Oc2nc(-c3cccc(C#N)c3)ncc2C(=O)O)c1	94.7	Active	2810	3630	500	35.9	Active	Dose-dependent-effect	6.5	36.4	51.7	38.5	4.98	27.2	0.404	12.81	Moderate_effect; Moderate Bleeding Loss Was Observed; Potency Was More Than Bptu And Ticagrelor	Active; Water Content Did Not Return To Blank Level; At 10 Mg/Kg, Compound Showed Comparable Effect To Bptu, Edaravone, Hnw001	Dose-dependent-effect; Outperformed Edaravone And Hnw001 At 10 Mg/Kg	32	Tmax ([8]; po, 10 mg/kg, 24 h): 6.12 min; Activity (Rattus norvegicus [18]): 50.6%; Activity (Rattus norvegicus [19]): 29.3%; Activity (Rattus norvegicus [20]): 21.3%; Activity (Rattus norvegicus [21]): 591.5 U/ml
N#Cc1cccc(-c2nc(C(F)F)c(C(=O)O)n2OCc2csc(N)n2)c1	90.7	Active	2520	3350	490	24.5	Active	Dose-dependent-effect	9	50.2	55.7	14.9	4.98	7.5	0.338	0.7	Active; No Bleeding Loss Was Observed	Active; Water Content Did Not Return To Blank Level	Dose-dependent-effect; Outperformed Edaravone And Hnw001 At 10 Mg/Kg	40.6	Tmax ([8]; male, Sprague-Dawley, read-out: Tmax): 10 min; Activity (Rattus norvegicus [18]): 45.9%; Activity (Rattus norvegicus [19]): 25.6%; Activity (Rattus norvegicus [20]): 23.3%; Activity (Rattus norvegicus [21]): 645.4 U/ml
